From the NIST ThermoML archive (doi:10.1016/j.fluid.2016.02.028)
Numbers after ± are expanded uncertainties.

Settings: 298.15 K; 101.33 kPa; Liquid; Vibrating tube method

| mass density [kg/m3] | SMILES |
| --- | --- |
| 726.15 ± 2 | CCCCCCCCCC [decane] |
| 698.86 ± 2 | CCCCCCCC [octane] |
| 873.71 ± 2 | c1ccccc1 [benzene] |

| SMILES | mass density [kg/m3] |
| --- | --- |
| CCCC[N+](C)(CCCC)CCCC.O=S(=O)([N-]S(=O)(=O)C(F)(F)F)C(F)(F)F [tributylmethylammonium bis((trifluoromethyl)sulfonyl)imide] | 1261.65 ± 6 |
